{"source": "patent US20210395248A1", "about": "“INHIBITORS OF HUMAN IMMUNODEFICIENCY VIRUS REPLICATION” (ViiV HEALTHCARE UK (NO.5) LIMITED, priority 2018, published 2021)", "key": {"[1]": {"test": "Compound cytotoxicity, XTT-based colorimetric assay", "format": "cell-based", "settings": "human; uninfected MT2 cells, day 4, XTT; read-out: CC50", "protocol": "Compound cytotoxicity and the corresponding CC50 values were determined using the same protocol as described in the antiviral assay except that uninfected cells were used. Cytotoxicity was assessed on day 4 in uninfected MT2 cells by using a XTT (2,3-bis [2-Methoxy-4-nitro-5-sulfophenyl]-2H-tetrazolium-5-carboxyanilide inner salt)-based colorimetric assay (Sigma-Aldrich, St Louis, Mo.)."}, "[2]": {"test_system": "recombinant NL4-3 virus (Renilla luciferase reporter) in MT-2 cells", "test": "HIV cell culture assay (antiviral activity, luciferase readout in infected MT-2 cells)", "format": "cell-based", "settings": "NL43", "protocol": "HIV cell culture assay—MT-2 cells, 293T cells and the proviral DNA clone of NL4-3 virus were obtained from the NIH AIDS Research and Reference Reagent Program. MT-2 cells were propagated in RPMI 1640 media supplemented with 10% heat inactivated fetal bovine serum (FBS), […]. The 293T cells were propagated in DMEM media supplemented with 10% heat inactivated FBS, […]. A recombinant NL4-3 proviral clone, in which a section of the nef gene was replaced with the Renilla luciferase gene, was used to make the reference virus used in these studies. The recombinant virus was prepared through transfection of the recombinant NL4-3 proviral clone into 293T cells using Transit-293 Transfection Reagent from Mirus Bio LLC (Madison, Wis.). Supernatent was harvested after 2-3 days and the amount of virus present was titered in MT-2 cells using luciferase enzyme activity as a marker by measuring luciferase enzyme activity. Luciferase was quantitated using the EnduRen Live Cell Substrate from Promega (Madison, Wis.). Antiviral activities of compounds toward the recombinant virus were quantified by measuring luciferase activity in MT-2 cells infected for 4-5 days with the recombinant virus in the presence of serial dilutions of the compound.\nThe 50% effective concentration (EC50) was calculated by using the exponential form of the median effect equation where (Fa)=1/[1+(EC50/drug conc.)m] (Johnson V A, Byington RT. Infectivity Assay. In Techniques in HIV Research, ed. Aldovini A, Walker B D. 71-76. New York: Stockton Press. 1990). The 50% inhibitory concentration (EC50) was calculated by using the exponential form of the median effect equation where percent inhibition=1/[1+(EC50/drug concentration)m], where m is a parameter that reflects the slope of the concentration-response curve."}}}
{"smiles": "C[C@@H]1CN(c2ccc3c(=O)n(-c4ccc(Cl)c5c(NS(C)(=O)=O)nn(CC(F)(F)F)c45)c([C@H](Cc4cc(F)cc(F)c4)NC(=O)Cn4nc(C(F)F)c5c4C(F)(F)[C@@H]4C[C@H]54)nc3n2)C[C@H](C)O1", "note": "(atropisomer, axis not shown; (aR)) [Example 7, N—((S)-1-(3-(4-chloro-3-(methylsulfonamido)-1-(2,2,2-trifluoroethyl)-1H-indazol-7-yl)-7-((2S,6R)-2,6-dimethylmorpholino)-4-oxo-3,4-dihydropyrido[2,3-d]pyrimidin-2-yl)-2-(3,5-difluorophenyl)ethyl)-2-((3bS,4aR)-3-(difluoromethyl)-5,5-difluoro-3b,4,4a,5-tetrahydro-1H-cyclopropa[3,4]cyclopenta[1,2-c]pyrazol-1-yl)acetamide]", "values": [{"measurement": "CC50 at 4 days", "setting": "[1]", "value": "> 500", "unit": "nM"}, {"measurement": "EC50", "setting": "[2]", "value": 0.028, "unit": "nM"}]}
{"smiles": "C[C@@H]1CN(c2ccc3c(=O)n(-c4ccc(Cl)c5c(NS(=O)(=O)C6CC6)nn(CC(F)F)c45)c([C@H](Cc4cc(F)cc(F)c4)NC(=O)Cn4nc(C(F)F)c5c4C(F)(F)[C@@H]4C[C@H]54)nc3n2)C[C@H](C)O1", "note": "(atropisomer, axis not shown; (aR)) [Example 5, N—((S)-1-(3-(4-chloro-3-(cyclopropanesulfonamido)-1-(2,2-difluoroethyl)-1H-indazol-7-yl)-7-((2S,6R)-2,6-dimethylmorpholino)-4-oxo-3,4-dihydropyrido[2,3-d]pyrimidin-2-yl)-2-(3,5-difluorophenyl)ethyl)-2-((3bS,4aR)-3-(difluoromethyl)-5,5-difluoro-3b,4,4a,5-tetrahydro-1H-cyclopropa[3,4]cyclopenta[1,2-c]pyrazol-1-yl)acetamide]", "values": [{"measurement": "CC50 at 4 days", "setting": "[1]", "value": "> 500", "unit": "nM"}, {"measurement": "EC50", "setting": "[2]", "value": 0.03, "unit": "nM"}]}
{"smiles": "Cn1nc(NS(C)(=O)=O)c2c(Cl)ccc(-n3c([C@H](Cc4cc(F)cc(F)c4)NC(=O)Cn4nc(C(F)F)c5c4C(F)(F)[C@@H]4C[C@H]54)nc4nc(N(CCC(F)(F)F)C5CCC5)ccc4c3=O)c21", "note": "(atropisomer, axis not shown; (P)) [Example 13, N—((S)-1-((3P)-3-(4-chloro-1-methyl-3-(methylsulfonamido)-1H-indazol-7-yl)-7-(cyclobutyl(3,3,3-trifluoropropyl)amino)-4-oxo-3,4-dihydropyrido[2,3-d]pyrimidin-2-yl)-2-(3,5-difluorophenyl)ethyl)-2-((3bS,4aR)-3-(difluoromethyl)-5,5-difluoro-3b,4,4a,5-tetrahydro-1H-cyclopropa[3,4]cyclopenta[1,2-c]pyrazol-1-yl)acetamide]", "values": [{"measurement": "CC50 at 4 days", "setting": "[1]", "value": "> 100", "unit": "nM"}, {"measurement": "EC50", "setting": "[2]", "value": 0.068, "unit": "nM"}]}
{"smiles": "Cn1nc(NS(C)(=O)=O)c2c(Cl)ccc(-n3c([C@H](Cc4cc(F)cc(F)c4)NC(=O)Cn4nc(C(F)F)c5c4C(F)(F)[C@@H]4C[C@H]54)nc4nc(N5CC(C)(C)OC(C)(C)C5)ccc4c3=O)c21", "note": "(atropisomer, axis not shown; (P)) [Example 26, N—((S)-1-((3P)-3-(4-chloro-1-methyl-3-(methylsulfonamido)-1H-indazol-7-yl)-4-oxo-7-(2,2,6,6-tetramethylmorpholino)-3,4-dihydropyrido[2,3-d]pyrimidin-2-yl)-2-(3,5-difluorophenyl)ethyl)-2-((3bS,4aR)-3-(difluoromethyl)-5,5-difluoro-3b,4,4a,5-tetrahydro-1H-cyclopropa[3,4]cyclopenta[1,2-c]pyrazol-1-yl)acetamide]", "values": [{"measurement": "CC50 at 4 days", "setting": "[1]", "value": "> 100", "unit": "nM"}, {"measurement": "EC50", "setting": "[2]", "value": 0.023, "unit": "nM"}]}
{"smiles": "Cn1nc(NS(C)(=O)=O)c2c(Cl)ccc(-n3c([C@H](Cc4cc(F)cc(F)c4)NC(=O)Cn4nc(C(F)F)c5c4C(F)(F)[C@@H]4C[C@H]54)nc4nc(NCCCF)ccc4c3=O)c21", "note": "(atropisomer, axis not shown; (P)) [Example 35, N—((S)-1-((3P)-3-(4-chloro-1-methyl-3-(methylsulfonamido)-1H-indazol-7-yl)-7-((3-fluoropropyl)amino)-4-oxo-3,4-dihydropyrido[2,3-d]pyrimidin-2-yl)-2-(3,5-difluorophenyl)ethyl)-2-((3bS,4aR)-3-(difluoromethyl)-5,5-difluoro-3b,4,4a,5-tetrahydro-1H-cyclopropa[3,4]cyclopenta[1,2-c]pyrazol-1-yl)acetamide]", "values": [{"measurement": "CC50 at 4 days", "setting": "[1]", "value": "> 100", "unit": "nM"}, {"measurement": "EC50", "setting": "[2]", "value": 0.11, "unit": "nM"}]}
{"smiles": "Cn1nc(NS(C)(=O)=O)c2c(Cl)ccc(-n3c([C@H](Cc4cc(F)cc(F)c4)NC(=O)Cn4nc(C(F)F)c5c4C(F)(F)[C@@H]4C[C@H]54)nc4nc(N5CCOCC5)ccc4c3=O)c21", "note": "(atropisomer, axis not shown; (P)) [Example 23, N—((S)-1-((3P)-3-(4-chloro-1-methyl-3-(methylsulfonamido)-1H-indazol-7-yl)-7-morpholino-4-oxo-3,4-dihydropyrido[2,3-d]pyrimidin-2-yl)-2-(3,5-difluorophenyl)ethyl)-2-((3bS,4aR)-3-(difluoromethyl)-5,5-difluoro-3b,4,4a,5-tetrahydro-1H-cyclopropa[3,4]cyclopenta[1,2-c]pyrazol-1-yl)acetamide]", "values": [{"measurement": "CC50 at 4 days", "setting": "[1]", "value": "> 100", "unit": "nM"}, {"measurement": "EC50", "setting": "[2]", "value": 0.058, "unit": "nM"}]}
{"smiles": "Cn1nc(NS(C)(=O)=O)c2c(Cl)ccc(-n3c([C@H](Cc4cc(F)cc(F)c4)NC(=O)Cn4nc(C(F)F)c5c4C(F)(F)[C@@H]4C[C@H]54)nc4nc(N5CCCOCC5)ccc4c3=O)c21", "note": "(atropisomer, axis not shown; (P)) [Example 22, N—((S)-1-((3P)-3-(4-chloro-1-methyl-3-(methylsulfonamido)-1H-indazol-7-yl)-7-(1,4-oxazepan-4-yl)-4-oxo-3,4-dihydropyrido[2,3-d]pyrimidin-2-yl)-2-(3,5-difluorophenyl)ethyl)-2-((3bS,4aR)-3-(difluoromethyl)-5,5-difluoro-3b,4,4a,5-tetrahydro-1H-cyclopropa[3,4]cyclopenta[1,2-c]pyrazol-1-yl)acetamide]", "values": [{"measurement": "CC50 at 4 days", "setting": "[1]", "value": "> 100", "unit": "nM"}, {"measurement": "EC50", "setting": "[2]", "value": 0.052, "unit": "nM"}]}
{"smiles": "C[C@@H]1CN(c2ccc3c(=O)n(-c4ccc(Cl)c5c(NS(C)(=O)=O)nn(CC(F)F)c45)c([C@H](Cc4cc(F)cc(F)c4)NC(=O)Cn4nc(C(F)(F)F)c5c4C(F)(F)[C@@H]4C[C@H]54)nc3n2)C[C@H](C)O1", "note": "(atropisomer, axis not shown; (aR)) [Example 4, N—((S)-1-(3-(4-chloro-1-(2,2-difluoroethyl)-3-(methylsulfonamido)-1H-indazol-7-yl)-7-((2S,6R)-2,6-dimethylmorpholino)-4-oxo-3,4-dihydropyrido[2,3-d]pyrimidin-2-yl)-2-(3,5-difluorophenyl)ethyl)-2-((3bS,4aR)-5,5-difluoro-3-(trifluoromethyl)-3b,4,4a,5-tetrahydro-1H-cyclopropa[3,4]cyclopenta[1,2-c]pyrazol-1-yl)acetamide]", "values": [{"measurement": "CC50 at 4 days", "setting": "[1]", "value": "> 500", "unit": "nM"}, {"measurement": "EC50", "setting": "[2]", "value": 0.031, "unit": "nM"}]}
{"smiles": "C[C@@H]1CN(c2ccc3c(=O)n(-c4ccc(Cl)c5c(NS(=O)(=O)C6CC6)nn(CC(F)F)c45)c([C@H](Cc4cc(F)cc(F)c4)NC(=O)Cn4nc(C(F)(F)F)c5c4C(F)(F)[C@@H]4C[C@H]54)nc3n2)C[C@H](C)O1", "note": "(atropisomer, axis not shown; (aR)) [Example 6, N—((S)-1-(3-(4-chloro-3-(cyclopropanesulfonamido)-1-(2,2-difluoroethyl)-1H-indazol-7-yl)-7-((2S,6R)-2,6-dimethylmorpholino)-4-oxo-3,4-dihydropyrido[2,3-d]pyrimidin-2-yl)-2-(3,5-difluorophenyl)ethyl)-2-((3bS,4aR)-5,5-difluoro-3-(trifluoromethyl)-3b,4,4a,5-tetrahydro-1H-cyclopropa[3,4]cyclopenta[1,2-c]pyrazol-1-yl)acetamide]", "values": [{"measurement": "CC50 at 4 days", "setting": "[1]", "value": "> 500", "unit": "nM"}, {"measurement": "EC50", "setting": "[2]", "value": 0.04, "unit": "nM"}]}
